Results: US20230321108A1, “UNIT DOSAGE COMPOSITION OF AKT INHIBITOR” (NANJING CHIA TAI TIANQING PHARMACEUTICAL CO., LTD., priority 2020, published 2023)

Tests used:
[1] = molecular target: AKT3 (Homo sapiens (Human), UniProt Q9Y243); test: AKT kinase activity assay (HTRF kinEASE TK), AKT3; type: biochemical; conditions: 10 nM ATP, read-out: AKT3 enzyme activity IC50
Protocol: The substrate and ATP were respectively diluted with the 1× kinase reaction buffer to a concentration 5 times the reaction concentration.
A 5× enzyme working solution was prepared from the 1× kinase reaction buffer.
A 4× streptavidin-XL665 working solution was prepared from the assay buffer.
4× europium-labeled tyrosine kinase substrate antibody working solution The europium-labeled tyrosine kinase substrate antibody was 100-fold diluted with the assay reaction buffer to obtain a working solution.
After all the reagents were prepared according to the above method, except for the enzyme, the reagents were equilibrated to the room temperature and loaded.
b) 2 µL of previously prepared TK-biotin substrate solution (the concentration of the substrate for enzyme screening is shown in Table 1) was placed in each reaction well.
The plate was sealed with a sealing film, and the reaction solution was mixed until uniform and incubated at the room temperature for 10 min to allow the compound to fully react with and bind to the enzyme.
d) 2 µL of ATP solution was placed in each reaction well to initiate a kinase reaction (the concentration of ATP for enzyme screening and reaction time are shown in Table 1).
e) 5 min before the kinase reaction was completed, an assay solution was prepared.
f) After the kinase reaction was completed, 5 µL of diluted streptavidin-XL665 was placed in each reaction well and mixed with the reaction solution until uniform, and the diluted europium-labeled tyrosine kinase substrate antibody assay solution was immediately added.

[2] = molecular target: AKT1 (Homo sapiens (Human), UniProt P31749); test: AKT kinase activity assay (HTRF kinEASE TK), AKT1; type: biochemical; conditions: 2 µM ATP, read-out: AKT1 enzyme activity IC50
[3] = system: LnCap human prostate cancer; test: Subcutaneous transplantation model of LnCap human prostate cancer; type: in vivo, NCG mice; conditions: for T/C / TGI / TV on the day of the end of the experiment: 18 days; for TV on the day of the end of the experiment / TV on the day of grouping and administration: mean ± SEM; for TV on the day of grouping and administration: baseline
Description: NCG mice, male, 8-10-week-old (when tumor cells were inoculated into the mice). […] LnCap cells in exponential growth phase were harvested and resuspended in PBS to a concentration suitable for subcutaneous tumor inoculation into mice. […] A formula for calculating a tumor volume: long diameter × short diameter^2 / 2. [table] […] Solvent: the solvent was a mixed solvent of PG, PEG400, and water, PG: PEG400: water=(20-40): (20-30): (30-50) (v: v: v). Any ratio within the range can be used. [table] All experimental results are shown as mean tumor volume ± SEM (standard error of mean). Whether there is a significant difference between the treatment group and the control group in terms of tumor volume was determined by the independent samples T test. All data were analyzed by using SPSS 18.0.

Chain of AKT3 (Q9Y243 whole entry): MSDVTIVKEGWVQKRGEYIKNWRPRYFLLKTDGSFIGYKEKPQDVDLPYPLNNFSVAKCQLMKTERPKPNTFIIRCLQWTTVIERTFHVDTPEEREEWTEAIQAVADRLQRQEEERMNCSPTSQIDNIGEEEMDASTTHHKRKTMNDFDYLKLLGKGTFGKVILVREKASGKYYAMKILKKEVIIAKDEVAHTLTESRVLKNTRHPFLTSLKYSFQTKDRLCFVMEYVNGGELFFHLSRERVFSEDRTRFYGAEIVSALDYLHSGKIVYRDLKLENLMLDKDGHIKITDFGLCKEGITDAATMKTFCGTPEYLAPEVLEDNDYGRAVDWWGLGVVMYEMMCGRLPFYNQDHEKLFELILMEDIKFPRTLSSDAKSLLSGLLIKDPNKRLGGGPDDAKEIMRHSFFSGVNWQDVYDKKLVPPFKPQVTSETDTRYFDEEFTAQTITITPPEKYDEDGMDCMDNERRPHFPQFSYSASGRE
Chain of AKT1 (P31749 whole entry): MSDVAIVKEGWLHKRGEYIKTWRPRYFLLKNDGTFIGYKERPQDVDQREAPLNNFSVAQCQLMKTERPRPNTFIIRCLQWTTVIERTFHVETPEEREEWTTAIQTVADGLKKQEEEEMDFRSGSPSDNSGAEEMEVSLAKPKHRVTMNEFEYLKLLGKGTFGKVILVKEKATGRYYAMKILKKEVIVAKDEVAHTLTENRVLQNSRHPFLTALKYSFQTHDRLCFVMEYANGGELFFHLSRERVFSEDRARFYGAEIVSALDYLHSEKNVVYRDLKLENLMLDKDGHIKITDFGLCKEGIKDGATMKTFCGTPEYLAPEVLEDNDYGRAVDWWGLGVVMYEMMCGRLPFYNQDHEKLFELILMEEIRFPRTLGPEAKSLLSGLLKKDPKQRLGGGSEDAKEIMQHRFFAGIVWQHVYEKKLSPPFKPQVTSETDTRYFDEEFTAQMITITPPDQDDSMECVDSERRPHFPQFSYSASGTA

Row | SMILES | IC50 [1] | IC50 [2] | T/C ([3]; 50 mg/kg QD po) | TGI ([3]; 50 mg/kg QD po) | TV on the day of the end of the experiment ([3]; 50 mg/kg QD po) | TV on the day of grouping and administration ([3]; 50 mg/kg QD po) | also measured
1 | C[C@@H]1CC(=O)Nc2ncnc(N3CCN(C(=O)[C@H](CNC4CC4)c4ccc(Cl)cc4)[C@H]4C[C@H]43)c21 (single isomer, unassigned) [Isomer 1 of Example 1] | 13 nM | – | – | – | – | – | –
2 | CC(C)NC[C@@H](C(=O)N1CCN(c2ncnc3c2[C@H](C)CC(=O)N3)[C@H]2C[C@H]21)c1ccc(Cl)cc1 [Isomer 2 of Example 1, (R)-4-((1S,6R)-5-((S)-2-(4-chlorophenyl)-3-(isopropylamino)propionyl)-2,5-diazabicyclo[4.1.0]heptan-2-yl)-5-methyl-5,8-dihydropyrido[2,3-d]pyrimidin-7(6H)-one] | – | – | 4.52% | 95.48% | 43.64±16.62 mm^3 | 177.78±6.64 mm^3 | T/C ([3]; 12.5 mg/kg QD po): 41.57%; TGI ([3]; 12.5 mg/kg QD po): 58.43%; TV on the day of the end of the experiment ([3]; 12.5 mg/kg QD po): 401.07±80.17 mm^3; TV on the day of grouping and administration ([3]; 12.5 mg/kg QD po): 177.76±6.67 mm^3; T/C ([3]; 25 mg/kg QD po): 15.90%; TGI ([3]; 25 mg/kg QD po): 84.10%; TV on the day of the end of the experiment ([3]; 25 mg/kg QD po): 153.42±23.11 mm^3; TV on the day of grouping and administration ([3]; 25 mg/kg QD po): 177.80±6.71 mm^3
3 | C[C@@H]1CC(=O)Nc2ncnc(N3CCN(C(=O)[C@H](CNC4CC4)c4ccc(Cl)cc4)[C@@H]4C[C@@H]43)c21 [Isomer 2 of Example 2, (R)-4-((1S,6R)-5-((S)-2-(4-chlorophenyl)-3(cyclopropylamino)propionyl)-2,5-diazabicyclo[4.1.0]heptan-2-yl)-5-methyl-5,8-dihydropyrido[2,3-d]pyrimidin-7(6H)-one] | – | – | 19.44% | 80.56% | 187.49±22.88 mm^3 | – | –

More lines, main results first:

Row | IC50 [1] | IC50 [2] | SMILES | T/C ([3]; 50 mg/kg QD po) | TGI ([3]; 50 mg/kg QD po) | TV on the day of the end of the experiment ([3]; 50 mg/kg QD po) | TV on the day of grouping and administration ([3]; 50 mg/kg QD po) | also measured
4 | 0.12 nM | 0.6 nM | CC(C)NC[C@@H](C(=O)N1CCN(c2ncnc3c2[C@H](C)OC(=O)N3)[C@H]2C[C@H]21)c1ccc(Cl)cc1 (single isomer, unassigned; isomer 4) [Isomer 4 of Example 3] | 10.29% | 89.71% | 99.30±40.55 mm^3 | 177.90±10.06 mm^3 | tumor inhibiting effect in the in vivo experiment ([3]; result in words): obvious tumor inhibiting effect
5 | 89 nM | 613 nM | CC(C)NC[C@@H](C(=O)N1CCN(c2ncnc3c2[C@H](C)OC(=O)N3)[C@H]2C[C@H]21)c1ccc(Cl)cc1 (single isomer, unassigned) [Isomer 2 of Example 3] | – | – | – | – | –
